{"source": "patent US7235557B2", "about": "“Compounds and their uses” (MGI GP, Inc., priority 2000, dated 2007)", "key": {"focal cerebral ischemia": {"system": "focal cerebral ischemia", "assay": "Focal cerebral ischemia (MCA cauterization with temporary bilateral CCA occlusion), infarct volume", "format": "in vivo, male Long-Evans rats", "settings": "24 h, mean±SD", "description": "Focal cerebral ischemia is produced by cauterization of the right distal MCA (middle cerebral artery) with bilateral temporary common carotid artery occlusion in male Long-Evans rats for 90 minutes. All procedures performed on the animals are approved by the University Institutional Animal Care and Use Committee of the University of Pennsylvania. A total of 42 rats (weights: 230–340 g) obtained from Charles River were used in this study. The animals fasted overnight with free access to water prior to the surgical procedure.\nTwo hours prior to MCA occlusion, varying amounts (control, n=14; 5 mg/kg, n=7; 10 mg/kg, n=7; 20 mg/kg, n=7; and 40 mg/kg, n=7) of the compound, 3,4-dihydro-5-[4-(1-piperidinyl)-butoxy]-1(2H)-isoquinolinone (“DPQ”) were dissolved in dimethyl sulfoxide (DMSO) using a sonicator. A volume of 1.28 ml/kg of the resulting solution was injected intraperitoneally into […].\nFocal cerebral ischemia was produced by cauterization of the distal portion of the right MCA with bilateral temporary common carotid artery (CCA) occlusion by the procedure of Chen et al., “A Model of Focal Ischemic Stroke in the Rat: Reproducible Extensive Cortical Infarction”, Stroke 17:738–43 (1986) and/or Liu et al., “Polyethylene Glycol-conjugated Superoxide Dismutase and Catalase Reduce Ischemic Brain Injury”, Am. J. Physiol. 256:H589–93 (1989), both of which are hereby incorporated by reference.\nSpecifically, bilateral CCA's were isolated, and loops made from polyethylene (PE-10) catheter were carefully passed around the CCA's for later remote occlusion. The incision made previously for placement of the laser doppler probe was extended to allow observation of the rostral end of the zygomatic arch at the fusion point using a dental drill, and the dura mater overlying the MCA was cut. […] The burr hole was covered with a small piece of Gelform, and the wound was sutured to maintain the brain temperature within the normal or near-normal range.\nAfter 90 minutes of occlusion, the carotid loops were released, the tail arterial catheter was removed, and all of the wounds were sutured. Gentamicin sulfate (10 mg/ml) was topically applied to the wounds to prevent infection. […]\nTwo hours after MCA occlusion, the animals were given the same doses of the PARP inhibitor as in the pre-treatment. […] To avoid artifacts due to edema, the damaged area was calculated by subtracting the area of the normal tissue in the hemisphere ipsilateral to the stroke from the area of the hemisphere contralateral to the stroke, by the method of Swanson et al., “A Semiautomated Method for Measuring Brain Infarct Volume”, J. Cereb. […] The total volume of infarction was calculated by summation of the damaged volume of the brain slices."}, "[1]": {"system": "infarct size caused by ischemia and reperfusion of the heart", "settings": "rabbits, cited from earlier work"}, "[2]": {"system": "MSU crystal induced neutrophil migration", "assay": "MSU crystal-induced neutrophil recruitment (peritonitis, gout model)", "format": "in vivo, Swiss albino mice", "description": "Male outbread Swiss albino mice (20–22 g body weight) were purchased from Banton and Kingsman (T.O. stain; Hull, Humberside) and maintained on a standard chow pellet diet with tap water ad libitum and a 12:00 h light/dark cycle. All animals were housed for 1 week prior to experimentation to allow body weight to reach 28–30 g.\n1,11b-dihydrobenzopyrano[4,3,2-de]isoquinolin-1-one, as an example PARP inhibitor, was dissolved in 100% DMSO at room temperature at a concentration of 45 mg in 2 ml. The compound was then injected into the peritoneal cavity, so as each mouse received a single dose corresponding to 45 mg/2 ml/kg (e.g. 60 μl for a mouse of 30 g). Control mice received DMSO at 2 ml/kg i.p. A third group of mice which were left untreated were added to control for potential effects of the vehicle. The study involved therefore, the following three groups: group A, untreated mice, n=6, group B, DMSO-treated mice, n=8, and group C, mice treated with 1,11b-dihydrobenzopyrano[4,3,2-de]isoquinolin-1-one, n=8.\nMSU crystal-induced neutrophil recruitment was tested as follows. In all cases, mice were treated 1 h after the treatment noted above, with MSU crystals. A homogenous suspension of MSU crystals was obtained by a 30 min rotation. Peritonitis was induced by injection of 3 mg MSU crystals in 0.5 ml PBS (0.1 M, pH 7.4), and the recruitment of neutrophils into the cavity evaluated at the 6 h time point (Getting et al., 1997, J. Pharmacol. Exp. Ther. 283: 123–130). […]\nAn aliquot (100 μl) of the lavage fluid was then diluted 1:10 in Turk's solution (0.01% crystal violet in 3% acetic acid). The samples were then vortexed and 10 μl of the stained cell solution were placed in a Neubauer haematocymometer and neutrophils numbers counted using a light microscope (Olympus B061). […]\nData are shown for single mice, and also shown as mean±S.E. of (n) mice per group. Statistical differences were determined by ANOVA, plus Bonferroni test A P value<0.05 was taken as significant."}, "PARP": {"target": "PARP (Homo sapiens, UniProt P09874)", "sequence (P09874 whole entry)": "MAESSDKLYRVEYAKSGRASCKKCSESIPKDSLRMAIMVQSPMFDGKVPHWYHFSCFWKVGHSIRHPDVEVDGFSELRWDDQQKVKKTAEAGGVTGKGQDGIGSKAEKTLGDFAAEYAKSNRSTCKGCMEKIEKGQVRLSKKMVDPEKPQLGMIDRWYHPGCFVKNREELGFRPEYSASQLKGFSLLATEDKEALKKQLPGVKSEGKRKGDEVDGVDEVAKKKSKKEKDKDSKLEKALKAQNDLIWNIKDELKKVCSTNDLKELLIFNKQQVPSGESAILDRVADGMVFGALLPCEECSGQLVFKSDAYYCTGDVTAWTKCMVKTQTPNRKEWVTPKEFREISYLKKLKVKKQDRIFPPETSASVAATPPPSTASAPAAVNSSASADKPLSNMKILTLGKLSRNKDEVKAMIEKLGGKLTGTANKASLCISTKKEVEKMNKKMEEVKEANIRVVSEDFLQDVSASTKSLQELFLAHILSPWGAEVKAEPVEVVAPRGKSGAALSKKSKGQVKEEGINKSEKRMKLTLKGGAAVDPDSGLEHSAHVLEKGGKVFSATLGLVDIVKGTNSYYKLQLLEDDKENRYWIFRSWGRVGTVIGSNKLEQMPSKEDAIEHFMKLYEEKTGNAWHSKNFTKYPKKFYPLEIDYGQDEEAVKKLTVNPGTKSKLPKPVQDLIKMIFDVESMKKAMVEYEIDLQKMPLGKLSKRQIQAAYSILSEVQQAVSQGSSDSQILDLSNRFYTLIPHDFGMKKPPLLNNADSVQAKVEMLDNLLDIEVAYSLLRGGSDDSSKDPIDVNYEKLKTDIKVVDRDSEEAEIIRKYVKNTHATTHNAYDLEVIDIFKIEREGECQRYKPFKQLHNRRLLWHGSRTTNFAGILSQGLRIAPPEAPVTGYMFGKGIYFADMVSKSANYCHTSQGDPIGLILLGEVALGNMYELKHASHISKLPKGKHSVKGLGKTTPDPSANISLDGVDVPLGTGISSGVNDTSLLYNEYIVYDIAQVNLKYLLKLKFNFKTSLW", "settings": "read-out: IC50 for inhibiting PARP; reported by Suto et al.; cited from earlier work"}, "[3]": {"target": "T1, purified recombinant human PARP (Homo sapiens, UniProt P09874)", "T1 construct": "purchased Trevigan (Gaithersburg, Md.)", "T1 sequence (P09874 whole entry)": "as above", "assay": "PARP enzyme assay (IC50)", "format": "biochemical", "settings": "approximate IC50 values, [3H]NAD, read-out: IC50", "description": "The reaction is initiated by adding enzyme and incubating the mixture at 25° C. After 2 minutes of incubation, the reaction is terminated by adding 500 microliters of ice cold 30% (w/v) trichloroacetic acid. The precipitate formed is transferred onto a glass fiber filter Packard Unifilter-GF/C) and washed three times with 70% ethanol. After the filter is dried, the radioactivity is determined by scintillation counting."}}, "note": "Several values for one entry are separate records, joined by “and”; a condition that tells them apart may be missing. Equal values may be shown once.", "data": [{"smiles": "O=C1NCCc2c(OCCCCN3CCCCC3)cccc21", "note": "[DPQ, 3,4-dihydro-5-[4-(1-piperidinyl)-butoxy]-1(2H)-isoquinolinone]", "values": [{"measurement": "damaged volume (infarct volume)", "setting": "focal cerebral ischemia; 5 mg/kg i.p. 2 h before and 2 h after MCA occlusion, control 165.2±34.0", "result": "106.7±23.2", "unit": "mm^3"}, {"measurement": "damaged volume (infarct volume)", "setting": "focal cerebral ischemia; 10 mg/kg i.p. 2 h before and 2 h after MCA occlusion, control 165.2±34.0", "result": "76.4±16.8", "unit": "mm^3"}, {"measurement": "damaged volume (infarct volume)", "setting": "focal cerebral ischemia; 20 mg/kg i.p. 2 h before and 2 h after MCA occlusion, control 165.2±34.0", "result": "110.2±42.0", "unit": "mm^3"}, {"measurement": "damaged volume (infarct volume)", "setting": "focal cerebral ischemia; 40 mg/kg i.p. 2 h before and 2 h after MCA occlusion, not significant vs control", "result": "135.6±44.8", "unit": "mm^3"}]}, {"smiles": "NC(=O)c1cccc(N)c1", "note": "[3-amino-benzamide]", "values": [{"measurement": "reduction in infarct size in the heart", "setting": "[1]; single injection 10 mg/kg, one minute before occlusion or before reperfusion", "result": "32–42%"}]}, {"smiles": "O=C1N=Cc2cccc3c2C1c1ccccc1O3", "note": "(stereo not shown) [1,11b-dihydrobenzopyrano[4,3,2-de]isoquinolin-1-one]", "values": [{"measurement": "inhibition of cell influx vs. the vehicle group", "setting": "[2]; 45 mg/kg i.p., 6 h", "result": 55, "unit": "%"}, {"measurement": "Neutrophil Numbers (single mice)", "setting": "[2]; group C, 45 mg/kg i.p. 1 h prior to 3 mg MSU crystals, 6 h time-point, one value per mouse, 45 mg/kg", "result": "2.4 10^6 per mouse (2×) and 3.0 10^6 per mouse (2×) and 2.7 10^6 per mouse and 2.1 10^6 per mouse (2×) and 5.1 10^6 per mouse"}, {"measurement": "Neutrophils (10^6 per mouse)", "setting": "[2]; group C, 45 mg/kg i.p., MSU crystals (3 mg), 6 h, mean ± S.E. of (n) mice, vehicle 6.30 ± 0.33", "result": "2.85 ± 0.34 (8)* 10^6 per mouse"}]}, {"smiles": "O=C1NCCc2c(OCCCCN3CCCCC3)cccc21", "note": "[3,4-dihydro-5-[4-(1-piperidinyl)butoxy]-1(2H)-isoquinolinone]", "values": [{"measurement": "IC50", "setting": "PARP", "result": 40, "unit": "nM"}]}, {"smiles": "Oc1cccc2c(O)nccc12", "note": "[1,5-dihydroxyisoquinoline]", "values": [{"measurement": "reduction in infarct size", "setting": "[1]; 1 mg/kg", "result": "38–48%"}]}, {"smiles": "COc1cc2c(cc1OC)CN(Cc1nc3cccc4c3n1CCNC4=O)CC2", "values": [{"measurement": "IC50", "setting": "[3]", "result": 713, "unit": "nM"}]}, {"smiles": "O=C1NCCn2c(CN3CCCCC3)nc3cccc1c32", "values": [{"measurement": "IC50", "setting": "[3]", "result": 801, "unit": "nM"}]}, {"smiles": "O=C1NCCn2c(CN3CCN(c4ccccc4)CC3)nc3cccc1c32", "values": [{"measurement": "IC50", "setting": "[3]", "result": 1900, "unit": "nM"}]}]}
